The source of these data is publication PMC12062780, “Validation of ion mobility spectrometry ‐ mass spectrometry as a screening tool to identify type II kinase inhibitors of FGFR1 kinase” (Rapid Communications in Mass Spectrometry, 2021).

The target in assay [1] is T1, FGFR1 (Homo sapiens, UniProt P11362, C488A/C584S).
T1 construct: made in house; host or cells: E. coli
Kind of assay: ESI-CIU-IMS-MS collision-induced unfolding of FGFR1 after incubation with inhibitor. To be noted: for IMS-MS Drift Time of unfolded conformer / Intensity vs base peak (5.5 ms) of the unfolded conformer at ca 7.6 ms: 11+ FGFR1 ions. As for the experimental part: FGFR1 (2 μM) and inhibitors (8 μM) were incubated separately in ammonium acetate (100 mM) for 1 h at room temperature prior to analysis. A Synapt G2‐S travelling‐wave ion mobility spectrometry ‐ mass spectrometer equipped with a nano‐ESI source was used for all sample analyses (Waters Corp., Manchester, UK). Samples were analysed by nano‐ESI from in‐house fabricated gold–palladium‐coated borosilicate capillaries assembled using a P‐97 micropipette puller (Sutter Instrument Co., Novato, CA, USA) and a sputter coater (Polaron SC7620; Quorum Technologies Ltd, Kent, UK). The following instrument parameters were set: capillary voltage 1.8 kV, cone voltage 30 V, source temperature 100°C, backing pressure 9.3 mbar, travelling‐wave height 40 V, travelling‐wave speed 500 m/s, IMS He gas flow rate 150 mL/min, IMS N2 gas flow rate 50 mL/min. For the collision‐induced unfolding (CIU) experiments, the trap voltage was increased to 21 V or 24 V and the transfer voltage was maintained at 4 V. Data were processed by use of the MassLynx (version 4.1) and Driftscope software supplied with the mass spectrometer. The m/z scale was calibrated using a separate introduction of aqueous CsI at 1 mg/mL.
To see if type I and type II inhibitors affect the conformational profile of FGFR1, the protein was incubated with each inhibitor separately prior to nano‐ESI‐CIU‐IMS‐MS analysis. All charge‐state ions arising from the FGFR1–ligand complexes (selected individually by the initial quadrupole analyser) were subjected to CIU‐induced unfolding in the trap prior to IMS separation.
During these analyses, the trap energy was increased and protein unfolding was monitored by examining the drift times of the protein ions during their transit through the IMS cell.

The subject of assay [2] is FGFR1. To be noted: read-out: in vitro IC50 against FGFR1; cited from earlier work.
Another assay concerns the target T2, FGFR1 kinase domain (Homo sapiens, UniProt P11362, C488A/C584S).
T2 construct: Human FGFR1 consisting of residues 457–765 with C488A and C584S mutations; made in house; host or cells: E. coli
The experiment in a line: X-ray crystallography of FGFR1–ligand complexes (DFG loop status). The class given is binding. To be noted: co-crystal structure.

Assay [3] concerns the target T1, FGFR1. Kind of assay: Microscale thermophoresis (MST), label-free. The class given is binding. To be noted: type I TKI; MST per b30 and Figure S5 (Figure 2 legend says ITC), 25°C. The procedure:
Thermophoresis was used to measure the binding interactions between FGFR1 and compounds. The MST measurements were performed using a Monolith NT.LabelFree instrument (NanoTemper Technologies GmbH, Munich, Germany). In this instrument, an infrared laser beam and light (fluorescence excitation and emission) was coupled with a dichroic mirror and focused on the sample. When the IR‐laser was on, it heated a small area of the sample and created a temperature gradient. The total fluorescence of the focused area was measured when the IR‐laser was off (Fcold) and on (Fhot). The capillaries were filled with the sample (less than 5 μL was required for each capillary). The following MST settings were used: LED power 70%, MST laser power 40%, fluorescence before (5 s), MST on (30 s), fluorescence after (3 s). […] After the capillary scan thermophoresis FGFR1 was measured for 30 s in the presence of the varied concentrations of compound. Fnorm = Fhot/Fcold was analysed and plotted by NT Analysis software (NanoTemper Technologies GmbH). Fraction bound = (Fnorm – Fnorm [unbound])/(Fnorm (bound) – Fnorm (unbound)) was calculated and the binding data were fitted to a Hill function (n = 1) using the instrument analysis software. To eliminate artifacts caused by labelling or modifying proteins, the fluorescence of tryptophan residues was used to monitor the local protein concentration. […]

For assay [4], the system named is FGFR1. Also noted: method as in PMID 22141913. To be noted: cited from earlier work.
Assay [5] has as its target T3, Human FGFR1 consisting of residues 457–765 with C488A and C584S mutations (Homo sapiens, UniProt P11362, C488A/C584S).
T3 construct: made in house; host or cells: E. coli
Kind of assay: Isothermal titration calorimetry (ITC) of inhibitor binding to FGFR1. To be noted: 25°C, type I TKIs.
Protocol: ITC was carried out using a Microcal ITC200 instrument (GE Healthcare Biosciences, Amersham, UK). FGFR1 was dialysed against the experimental buffer (20 mM Tris/HCl, 100 mM NaCl and 5 mM DTT pH 7.8) prior to titration with inhibitor. Inhibitors were dissolved in DMSO, and experimental buffer DMSO concentration was matched. Titrations were performed at 25°C with 2 μL injections of inhibitor (200 μM) every 180 s into the cell containing FGFR1 (20 μM) with stirring at 1000 rpm. Results were analysed in Origin (OriginLab, Northampton, MA, USA) and fitted using a one‐site binding model.

T2 sequence (P11362 457-765 C488A/C584S): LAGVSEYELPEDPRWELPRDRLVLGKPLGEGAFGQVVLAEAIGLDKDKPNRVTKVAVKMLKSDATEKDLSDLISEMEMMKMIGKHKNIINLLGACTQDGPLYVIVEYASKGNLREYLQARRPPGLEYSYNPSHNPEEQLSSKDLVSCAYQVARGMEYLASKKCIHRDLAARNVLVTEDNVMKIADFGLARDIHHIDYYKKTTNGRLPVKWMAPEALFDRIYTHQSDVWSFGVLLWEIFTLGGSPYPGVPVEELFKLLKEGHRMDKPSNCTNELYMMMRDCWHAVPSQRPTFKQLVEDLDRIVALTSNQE
T1 sequence (P11362 with tags, fused parts or gaps C488A/C584S): as the sequence (P11362 457-765 C488A/C584S) above, with L1G counted along it
T3 sequence (P11362 with tags, fused parts or gaps C488A/C584S): as the sequence (P11362 457-765 C488A/C584S) above, with L1G counted along it
Protocol for FGFR1 kinase domain: Data were integrated and scaled using XDS[23] and SCALA[24] as implemented within the autoPROC software package.[25] Data reduction and structure solution by molecular replacement were carried out using programs from the CCP4 software suite.[26] […] The protein–inhibitor complex model was refined using Buster,[28] interspersed with rounds of manual model building in Coot.[29]

For orientation: IC50 means the concentration that gives 50% inhibition. In the case of `CNC(=O)c1cc(Oc2ccc(NC(=O)Nc3ccc(Cl)c(C(F)(F)F)c3)cc2)ccn1` [Sorafenib], the “IMS-MS Drift Time of unfolded conformer” value on FGFR1 [1] (21 V Trap) turned out to be 7.5 ms. For the same compound, on FGFR1 [1] (24 V Trap), the “IMS-MS Drift Time of unfolded conformer” value is on record as 7.5 ms and the “Intensity vs base peak (5.5 ms) of the unfolded conformer at ca 7.6 ms” value stood at 66.1%. Further, the “Inhibitor class assigned from CIU profile” value at FGFR1 [1] (ESI-IMS-MS CIU profile) is “type II”. The IC50 in the assay with FGFR1 [2] is 0.58 µM.
`Cc1ccc(F)c(NC(=O)Nc2ccc(-c3cccc4[nH]nc(N)c34)cc2)c1` [Linifanib]: the “FGFR1 kinase conformation bound or induced (DFG motif orientation)” value at FGFR1 kinase domain is “DFG out”. Moreover, the “IMS-MS Drift Time of unfolded conformer” value on FGFR1 [1] (21 V Trap) worked out at 7.5 ms; at FGFR1 [1] (24 V Trap), 7.7 ms. Besides, the “Intensity vs base peak (5.5 ms) of the unfolded conformer at ca 7.6 ms” value stood at 55.0% on FGFR1 [1] (21 V Trap) and 92.8% on FGFR1 [1] (24 V Trap).
Take `CNC(=O)c1ccccc1Nc1cc(Nc2cn(C)nc2C)ncc1C(F)(F)F` [Compound E]: on FGFR1 [1] (21 V Trap), the “IMS-MS Drift Time of unfolded conformer” value is reported as 7.5 ms and the “Intensity vs base peak (5.5 ms) of the unfolded conformer at ca 7.6 ms” value is reported as 24.2%. At FGFR1 [1] (24 V Trap), the “IMS-MS Drift Time of unfolded conformer” value is recorded as 7.5 ms and the “Intensity vs base peak (5.5 ms) of the unfolded conformer at ca 7.6 ms” value was 45.8%.
In the case of `Cc1cc(Nc2nc(NCCc3cccnc3)ncc2Br)n[nH]1` [Compound C], the “IMS-MS Drift Time of unfolded conformer” value at FGFR1 [1] (21 V Trap) and at FGFR1 [1] (24 V Trap) was 7.5 ms in each case. Moreover, the “Intensity vs base peak (5.5 ms) of the unfolded conformer at ca 7.6 ms” value at FGFR1 [1] (21 V Trap) was 25.0%; on FGFR1 [1] (24 V Trap), 40.7%.
For `CC(C)Oc1cc(Nc2ccnc(NCc3cc(C4CC4)no3)n2)n[nH]1` [Compound B], the “IMS-MS Drift Time of unfolded conformer” value was 7.5 ms on FGFR1 [1] (21 V Trap) and 7.7 ms at FGFR1 [1] (24 V Trap). Further, the “Intensity vs base peak (5.5 ms) of the unfolded conformer at ca 7.6 ms” value is on record as 29.2% at FGFR1 [1] (21 V Trap) and 50.8% at FGFR1 [1] (24 V Trap).
The corresponding values for `Cc1ccc(C(=O)Nc2ccc(CN3CCN(C)CC3)c(C(F)(F)F)c2)cc1C#Cc1cnc2cccnn12` [Ponatinib] are 7.9 ms, 7.7 ms, 46.7% and 71.2%.
In general, Kd refers to the constant that tells how readily two partners part at equilibrium. A higher Kd goes with weaker binding. Regarding `CN1CCN(c2ccc(NC(=O)c3n[nH]c4ccccc34)cc2)CC1` [JK-P5], on FGFR1 [3], the affinity, expressed as Kd, was 0.145 µM. For the same compound, on FGFR1 kinase domain, the “FGFR1 kinase conformation bound or induced (DFG motif orientation)” value is reported as “DFG in”. Besides, on FGFR1 [1] (21 V Trap), the “IMS-MS Drift Time of unfolded conformer” value was 7.5 ms and the “Intensity vs base peak (5.5 ms) of the unfolded conformer at ca 7.6 ms” value turned out to be 22.1%. In addition, at FGFR1 [1] (24 V Trap), the “IMS-MS Drift Time of unfolded conformer” value was found to be 7.5 ms and the “Intensity vs base peak (5.5 ms) of the unfolded conformer at ca 7.6 ms” value was determined as 32.2%. In the assay with FGFR1 [4], the “cellular activity against FGFR1” value was “cellular activity against FGFR1”.
In the case of `CCCc1cc(Nc2nc(NCc3ccccn3)ncc2Br)n[nH]1` [Compound D], the “Kd for FGFR1” value in assay [5] came to 0.036 µM. Further, at FGFR1 [1] (21 V Trap), the “IMS-MS Drift Time of unfolded conformer” value is recorded as 7.5 ms and the “Intensity vs base peak (5.5 ms) of the unfolded conformer at ca 7.6 ms” value amounted to 27.5%. Moreover, on FGFR1 [1] (24 V Trap), the “IMS-MS Drift Time of unfolded conformer” value is on record as 7.7 ms and the “Intensity vs base peak (5.5 ms) of the unfolded conformer at ca 7.6 ms” value came to 43.2%.
Compound `COc1ccc(C(=O)Nc2cc(-c3ccccc3)[nH]n2)cc1OC` [JK-P3] showed a Kd at FGFR1 [3] of 25 µM. The “FGFR1 kinase conformation bound or induced (DFG motif orientation)” value on FGFR1 kinase domain is recorded as “DFG in”. In addition, the “IMS-MS Drift Time of unfolded conformer” value at FGFR1 [1] (21 V Trap) and at FGFR1 [1] (24 V Trap) was 7.5 ms each time. Besides, the “Intensity vs base peak (5.5 ms) of the unfolded conformer at ca 7.6 ms” value is listed as 30.8% at FGFR1 [1] (21 V Trap) and 45.8% at FGFR1 [1] (24 V Trap). Further, the “cellular activity against FGFR1” value with FGFR1 [4] is on record as “cellular activity against FGFR1”.
